Consider 16 compounds from patent publication US6596772B1, “Phosphate mimics and methods of treatment using phosphatase inhibitors” (Sugen, Inc., priority 1999, dated 2003).

Each structure is given as a SMILES string. Where two headings read alike, the source gives them in different places.

Common to all, as to assay: PTP IC50 assay, fluorescent substrate DiFMUP
Holding throughout (type): biochemical

In one assay the target is T1, PTP SHP2 (Homo sapiens, UniProt Q06124).
T1 construct: The catalytic domain was amplified using the following oligonucleotides; made in house; host or cells: Sf-9 insect cells (pFastBac-G2T)
T1 sequence (Q06124 247-517 limits assumed): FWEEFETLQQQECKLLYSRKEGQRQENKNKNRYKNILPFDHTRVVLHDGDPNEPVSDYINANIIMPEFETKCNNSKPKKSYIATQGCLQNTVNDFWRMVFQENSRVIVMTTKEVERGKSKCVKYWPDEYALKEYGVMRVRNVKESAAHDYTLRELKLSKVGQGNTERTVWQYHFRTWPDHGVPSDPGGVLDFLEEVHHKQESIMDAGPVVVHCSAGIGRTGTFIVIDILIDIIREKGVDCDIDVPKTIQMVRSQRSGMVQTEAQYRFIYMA
From the text:
SHP-2 cDNA was used as described earlier (Vogel W., et al.,1993, Science, 259:1611-4). The catalytic domain was amplified using the following oligonucleotides 5′oligo: 5′-[…]-3′ (SEQ ID NO: 2) 3′oligo: 5′-[…]-3′ (SEQ ID NO: 3) and subsequently subcloned into BamH1-Xba-1 sites. It was then ligated into pfas Bac-G2T BamH1-Xba-1 sites.
(§1) The following in vitro assay procedure is preferred to determine the level of activity and effect of the different compounds of the present invention on one or more of the PTPs. Similar assays can be designed along the same lines for any PTP using techniques well known in the art.
(§2) The catalytic assays described herein are performed in a 96-well format. The general procedure begins with the determination of PTP optimal pH using a three-component buffer system that minimizes ionic strength variations across a wide range of buffer pH. Next, the Michaelis-Menten constant, or Km, is determined for the substrate 6,8-difluoro-4-methylumbelliferyl phosphate (DiFMUP). This Km value is subsequently used as the substrate reaction concentration for compound screening. Finally, the test PTP is exposed to varying concentrations of compound for fifteen minutes and allowed to react with substrate for ten minutes. The results are plotted as percent inhibition versus compound concentration and the IC50 interpolated from the plot.
(§3) All assays were performed using DiFMUP as substrate. The optimum pH and substrate Km was determined for each PTP used.
(§4) PTPase activity was assayed at 25° C. in a 100-μl reaction mixture containing an appropriate concentration of DiFMUP as substrate. The reaction was initiated by addition of the purified PTP and quenched after 10 min by addition of 1% H2O2/100 mM NaCl. The non-enzymatic hydrolysis of the substrate was corrected by measuring the control without the addition of the enzyme. The amount of DiFMU produced was determined from the increase in the fluorescence (360 nm excitation/460 nm emission) over that of background in the absence of PTPase. To determine the kinetic parameter, Km, the initial velocities were measured at various substrate concentrations and the data were fitted to the Michaelis equation where velocity=(Vmax*[S])/(Km+[S]), and [S]=substrate reaction concentration.
(§5) The effect of the compounds on PTP was evaluated at 25° C. using DiFMUP as substrate. PTP was pre-incubated for fifteen minutes with various concentrations of compound. Substrate was then added at a fixed concentration (usually equal to the Km previously calculated). After 10 minutes, the reaction was quenched. The hydrolysis of DiFMUP was followed as described above. The percent inhibition was calculated as follows: Percent Inhibition=[(control signal−compound signal)/control signal]×100%. The IC50 was then determined by interpolation of a percent inhibition versus compound concentration plot.
(§6) Plasmids designed for bacterial GST-PTP fusion protein expression were derived by insertion of PCR-generated human PTP fragments into pGEX vectors (Pharmacia Biotech). Several of these constructs were then used to subclone phosphatases into pFastBac-1 for expression in Sf-9 insect cells. Oligonucleotides used for the initial amplification of PTP genes are as described above. The cDNAs were prepared using the Gilbo BRL superscript preamplification system on RNAs purchased from Clontech.

The next assay addresses T2, PTP 1B (Homo sapiens, UniProt P18031).
T2 construct: made in house; host or cells: Sf-9 insect cells (pFastBac-G2T)
T2 sequence (P18031 1-435): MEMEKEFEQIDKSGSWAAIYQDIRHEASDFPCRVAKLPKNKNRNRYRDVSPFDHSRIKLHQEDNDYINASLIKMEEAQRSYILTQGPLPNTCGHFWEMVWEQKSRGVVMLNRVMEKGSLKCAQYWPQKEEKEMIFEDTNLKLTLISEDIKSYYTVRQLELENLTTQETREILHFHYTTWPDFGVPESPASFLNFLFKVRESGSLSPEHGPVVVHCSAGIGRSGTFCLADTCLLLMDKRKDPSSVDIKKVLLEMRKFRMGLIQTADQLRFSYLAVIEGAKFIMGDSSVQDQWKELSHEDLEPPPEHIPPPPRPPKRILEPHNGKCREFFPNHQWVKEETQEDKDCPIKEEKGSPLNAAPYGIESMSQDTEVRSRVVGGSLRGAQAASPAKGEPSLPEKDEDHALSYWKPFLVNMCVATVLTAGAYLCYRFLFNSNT
From the text: The PTP1b cDNA was amplified from human placenta single strand cDNA (Clontech RNA) using the following oligonucleotides: 5′oligo: 5′-[…] (SEQ ID NO: 4) 3′oligo: 5′-[…] (SEQ ID NO: 5) It was subsequently ligated into pFasBac G2TBamH1Xba-1 sites.
as §1, §2, §3, §4, §5, §6

Another assay deals with T3, PTP EPSILON (Homo sapiens, UniProt P23469).
T3 construct: made in house; host or cells: Sf-9 insect cells (pFastBac-G2T); a pGEX 6P-1 construct also existed
T3 sequence (P23469 80-393 limits assumed): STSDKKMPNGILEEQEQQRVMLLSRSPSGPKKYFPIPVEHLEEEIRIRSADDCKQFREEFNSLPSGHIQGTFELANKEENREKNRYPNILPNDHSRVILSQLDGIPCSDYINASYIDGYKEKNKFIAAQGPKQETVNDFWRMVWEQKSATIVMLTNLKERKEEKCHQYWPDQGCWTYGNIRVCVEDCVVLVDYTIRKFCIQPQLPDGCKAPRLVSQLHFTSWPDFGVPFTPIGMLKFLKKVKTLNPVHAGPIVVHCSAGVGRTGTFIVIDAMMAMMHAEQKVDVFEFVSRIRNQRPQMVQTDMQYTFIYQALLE
From the text: The PTPepsilon cDNA was amplified from human placenta single-strand cDNA (Clontech RNA) using the following oligonucleotides: 5′oligo: 5′-[…]-3′ (SEQ ID NO: 6) 3′oligo: 5′-[…]-3′ (SEQ ID NO: 7) After cloning this PCR product into the Bam HI/Xho I sites of pGEX 6P-1, this phosphatase was subcloned using the same restriction sites in pFastBac-G2T.
as §1, §2, §3, §4, §5, §6

Setting [1] is: DiFMUP as substrate, 25° C., read-out: PTP IC50 SHP2.
Setting [2] is: DiFMUP as substrate, 25° C., read-out: PTP IC50 1B.
Setting [3] is: DiFMUP as substrate, 25° C., read-out: PTP IC50 Epilson.

In the case of `CCn1c(-c2ccc(C(=O)Nc3ccc(OC)cc3)cc2)nc2cc(S(=O)(=O)C(F)(F)F)ccc21` [Example 38, 4-(1-Ethyl-5-trifluoromethanesulfonyl-1H-benzoimidazol-2-yl)-N-(4-methoxy-phenyl)-benzamide], the IC50 is 1.1 µM on PTP SHP2 (setting [1]), 1.1 µM on PTP 1B (setting [2]) and 5.1 µM at PTP EPSILON (setting [3]).
Take `CCOC(=O)c1cccc(NC(=O)c2ccc(-c3nc4cc(S(=O)(=O)C(F)(F)F)ccc4n3CC)cc2)c1` [Example 39, 3-[4-(1-Ethyl-5-trifluoromethanesulfonyl-1H-benzoimidazol-2-yl)-benzoylamino]-benzoic acid ethyl ester]: the IC50 at PTP SHP2 (setting [1]) was found to be 1.2 µM; on PTP 1B (setting [2]) it was 3.7 µM; on PTP EPSILON (setting [3]) it was 1.5 µM.
Turning to `CCn1c(-c2ccc(C(=O)NCCN3CCCC3)cc2)nc2cc(S(=O)(=O)C(F)(F)F)ccc21` [Example 40, 4-(1-Ethyl-5-trifluoromethanesulfonyl-1H-benzoimidazol-2-yl)-N-(2-pyrrolidin-1-yl-ethyl)-benzamide], the half-inhibitory concentration (IC50) at PTP SHP2 (setting [1]) is over 100 µM; at PTP 1B (setting [2]) it was over 20 µM; on PTP EPSILON (setting [3]), over 100 µM.
Regarding `CCNC(=O)c1ccc(-c2nc3cc(S(=O)(=O)C(F)(F)F)ccc3n2CC)cc1` [Example 41, N-Ethyl-4-(1-ethyl-5-trifluoromethanesulfonyl-1H-benzoimidazol-2-yl)-benzamide], the IC50 is 19 µM on PTP SHP2 (setting [1]), over 20 µM on PTP 1B (setting [2]) and 13.5 µM on PTP EPSILON (setting [3]).
Take `CCn1c(C(=O)O)nc2cc(S(=O)(=O)C(F)(F)F)ccc21` [Example 42, 1-Ethyl-5-trifluoromethanesulfonyl-1H-benzoimidazole-2-carboxylic acid]: the IC50 at PTP SHP2 (setting [1]) was over 100 µM; on PTP 1B (setting [2]) it was over 20 µM; on PTP EPSILON (setting [3]), 98 µM.
Regarding `CCCCN(C(=O)c1ccccc1)C(C(=O)NCC(=O)OC)c1ccc(S(=O)(=O)C(F)(F)F)cc1` (stereo not drawn) [Example 43, [2-(Benzoyl-butyl-amino)-2-(4-trifluoromethanesulfonyl-phenyl)-acetylamino]-acetic acid methyl ester], the IC50 was 74.6 µM at PTP SHP2 (setting [1]), over 20 µM on PTP 1B (setting [2]) and 53.9 µM on PTP EPSILON (setting [3]).
With `CCCCNC(=O)C(c1ccc(S(=O)(=O)C(F)(F)F)cc1)N(Cc1ccccc1)C(=O)c1ccccc1` (stereo not drawn) [Example 44, N-Benzyl-N-[butylcarbamoyl-(4-trifluoromethanesulfonyl-phenyl)-methyl]-benzamide], the 50% inhibitory concentration (IC50) on PTP SHP2 (setting [1]) came out at 22.7 µM; on PTP 1B (setting [2]) it was 15.8 µM; at PTP EPSILON (setting [3]) it was 19 µM.
The like results for `CCCCNC(=O)C(c1ccc(S(=O)(=O)C(F)(F)F)cc1)N(CCO)C(=O)c1ccccc1` (stereo not drawn) [Example 45, N-[Butylcarbamoyl-(4-trifluoromethanesulfonyl-phenyl)-methyl]-N-(2-hydroxy-ethyl)-benzamide] were, in that order, over 100 µM, over 100 µM and over 100 µM.
For `CCOC(=O)CNC(=O)C(c1ccc(S(=O)(=O)C(F)(F)F)cc1)N(C(C)=O)C1CC1` (stereo not drawn) [Example 46, [2-(Acetyl-cyclopropyl-amino)-2-(4-trifluoromethanesulfonyl-phenyl)-acetylamino]-acetic acid ethyl ester], the half-maximal inhibitory concentration (IC50) on PTP SHP2 (setting [1]), on PTP 1B (setting [2]) and on PTP EPSILON (setting [3]) was over 100 µM each time.
`Cc1cccc(C)c1NC(=O)C(c1ccc(S(=O)(=O)C(F)(F)F)cc1)N(C(=O)c1ccccc1)C1CCCCC1` (stereo not drawn) [Example 49, N-Cyclohexyl-N-[(2,6-dimethyl-phenylcarbamoyl)-(4-trifluoromethanesulfonyl-phenyl)-methyl]-benzamide]: the IC50 at PTP SHP2 (setting [1]) stood at 10.6 µM; at PTP 1B (setting [2]) it was 8.3 µM; on PTP EPSILON (setting [3]), 9.3 µM.
With `CCCN(C(C)=O)C(C(=O)NCC(=O)OCC)c1ccc(S(=O)(=O)C(F)(F)F)cc1` (stereo not drawn) [Example 50, [2-(Acetyl-propyl-amino)-2-(4-trifluoromethanesulfonyl-phenyl)-acetylamino]-acetic acid ethyl ester], the IC50 on PTP SHP2 (setting [1]), on PTP 1B (setting [2]) and at PTP EPSILON (setting [3]) was over 100 µM in each case.
In the case of `CCOC(=O)CNC(=O)C(c1ccc(S(=O)(=O)C(F)(F)F)cc1)N(C(C)=O)C1CCCCC1` (stereo not drawn) [Example 51, [2-(Acetyl-cyclohexyl-amino)-2-(4-trifluoromethanesulfonyl-phenyl)-acetylamino]-acetic acid ethyl ester], the IC50 on PTP SHP2 (setting [1]), at PTP 1B (setting [2]) and at PTP EPSILON (setting [3]) was over 100 µM in each case.
As for `O=C(O)COc1ccc(S(=O)(=O)c2ccc(Oc3ccc(S(=O)(=O)C(F)(F)F)cc3[N+](=O)[O-])cc2)cc1` [Example 52, {4-[4-(2-Nitro-4-trifluoromethanesulfonyl-phenoxy)-benzenesulfonyl]-phenoxy}-acetic acid], the half-inhibitory concentration (IC50) at PTP SHP2 (setting [1]) was 8 µM; on PTP 1B (setting [2]) it was over 20 µM; on PTP EPSILON (setting [3]), 64.5 µM.
In the same order, the values of `O=C(O)c1ccc(OCCOc2ccc(S(=O)(=O)C(F)(F)F)cc2[N+](=O)[O-])cc1` [Example 53, 4-[2-(2-Nitro-4-trifluoromethanesulfonyl-phenoxy)-ethoxy]-benzoic acid] are 1.5 µM, 1.5 µM and 22.2 µM.
In the same order, the values of `O=[N+]([O-])c1ccccc1NCC(O)COc1ccc(S(=O)(=O)C(F)(F)F)cc1[N+](=O)[O-]` (stereo not drawn) [Example 58, 1-(2-Nitro-phenylamino)-3-(2-nitro-4-trifluoromethanesulfonyl-phenoxy)-propan-2-ol] are 4.4 µM, 9.4 µM and 29.1 µM.
As to `O=[N+]([O-])c1ccc(NCC(COc2ccc(S(=O)(=O)C(F)(F)F)cc2[N+](=O)[O-])Oc2ccc(S(=O)(=O)C(F)(F)F)cc2[N+](=O)[O-])cc1` (stereo not drawn) [Example 59, [2,3-Bis-(2-nitro-4-trifluoromethanesulfonyl-phenoxy)-propyl]-(4-nitro-phenyl)-amine], the IC50 was determined as 0.2 µM on PTP SHP2, 0.9 µM on PTP 1B and 38.1 µM on PTP EPSILON.

Broadly, the IC50 is the point on the concentration scale where inhibition reaches its midpoint.
